The record followed here is ChEMBL document CHEMBL5370525, “Antibiotics with novel mode of action as new weapons to fight antimicrobial resistance” (Eur J Med Chem, 2023).

Values after ≈ are worked out from the molar mass of the structure shown.

Series [1] is described as follows: Toxicity in Syrian hamster infected with clindamycin resistant Clostridium difficile ATCC 43596 assessed as animal survival at 5 mg/kg, po administered twice a day and measured after 25 days. It counts as organism-based, Mesocricetus auratus. As to conditions: in vivo, 600 h, time 25 day.
The nature of series [2]: Toxicity in Syrian hamster infected with clindamycin resistant Clostridium difficile ATCC 43596 assessed as survival rate at 0.5 mg/kg, po administered twice a day and measured after 33 days. As to conditions: in vivo, 792 h, time 33 day. It counts as organism-based, Mesocricetus auratus.
Series [3] can be described thus: Toxicity in Syrian hamster infected with clindamycin resistant Clostridium difficile ATCC 43596 assessed as survival rate at 5 mg/kg, po administered twice a day and measured after 33 days. It counts as organism-based, Mesocricetus auratus. As to conditions: in vivo, 792 h, time 33 day.
The test system of series [4] is Clostridioides difficile. Briefly: Antibacterial activity against Clostridium difficile clinical isolates assessed as inhibition of bacterial growth. The format is functional.
In series [5] the test system is Mycoplasma genitalium. Description: Antibacterial activity against Mycoplasma genitalium assessed as inhibition of bacterial growth. The format is functional. As to conditions: Mycoplasmoides genitalium.
Series [6] deals with Chlamydia trachomatis. Description: Antibacterial activity against Chlamydia trachomatis assessed as inhibition of bacterial growth. The format is functional.
Series [7] deals with Neisseria gonorrhoeae. Description: Antibacterial activity against Neisseria gonorrhoeae ATCC 49226 assessed as inhibition of bacterial growth by agar dilution method. The format is functional.
Series [8] in a line: Binding affinity to recombinant Clostridium difficile 630 DNA polymerase IIIC expressed in Escherichia coli Rosetta DE3pLysS cells assessed as inhibition constant incubated for 20 mins. Set-up: species or system Clostridioides difficile 630.
Series [9] can be described thus: Drug absorption in Syrian hamster infected with Clostridioides difficile at 75 mg/kg, po by LC-MS analysis. It counts as ADME, organism-based, Mesocricetus auratus. As to conditions: in vivo, read-out: Drug absorption.
Series [10] deals with Clostridioides difficile. Briefly: Antibacterial activity against Clostridium difficile clinical isolates assessed as inhibition of bacterial growth incubated for 48 hrs by CLSI-based assay. It counts as functional.
Series [11] relates to Staphylococcus aureus. Briefly: Antibacterial activity against Daptomycin non-susceptible Staphylococcus aureus clinical isolate assessed as inhibition of bacterial growth by CLSI-based broth microdilution method. The format is functional.
Series [12] has as its system Staphylococcus aureus. Briefly: Antibacterial activity against Vancomycin-resistant Staphylococcus aureus clinical isolate assessed as inhibition of bacterial growth by CLSI-based broth microdilution method. The format is functional.
In series [13] the test system is Staphylococcus aureus. Briefly: Antibacterial activity against methicillin-resistant Staphylococcus aureus ATCC 33591 infected in mouse assessed as log reduction in bacterial CFU in thigh 120 mg/kg, po measured after 24 hrs. The format is functional.
Series [14] in a line: Oral bioavailability in BALB/c mouse at 32 mg/kg by LC/MS-MS analysis. The format is ADME, organism-based. As to conditions: in vivo.
Series [15] can be described thus: Volume of distribution at steady state in BALB/c mouse at 24 mg/kg, iv by LC/MS-MS analysis. As to conditions: in vivo, read-out: Vdss. The format is ADME, organism-based.
Series [16] relates to HeLa. Briefly: Cytotoxicity against human HeLa cells assessed as inhibition of cell growth by MTT assay. The format is functional, cell-based.
The subject of series [17] is Staphylococcus aureus. Description: Antibacterial activity against Linezolid non-susceptible Staphylococcus aureus clinical isolate assessed as inhibition of bacterial growth by CLSI-based broth microdilution method. It counts as functional.
Series [18] deals with Staphylococcus aureus. Description: Antibacterial activity against Meticillin-Resistant Staphylococcus aureus clinical isolate assessed as inhibition of bacterial growth by CLSI-based broth microdilution method. It counts as functional.
The test system of series [19] is Staphylococcus aureus. Description: Antibacterial activity against Vancomycin-intermediate Staphylococcus aureus clinical isolate assessed as inhibition of bacterial growth by CLSI-based broth microdilution method. The format is functional.
Series [20] in a line: Cytotoxicity against MDCK cells assessed as inhibition of cell growth by MTT assay. It counts as toxicity, cell-based, Canis lupus familiaris. As to conditions: dog.
For series [21], the system named is Streptococcus pneumoniae. Briefly: Antibacterial activity against Levofloxacin-nonsusceptible Streptococcus pneumoniae assessed as inhibition of bacterial growth by CLSI-based assay. The format is functional.
The test system of series [22] is Escherichia coli. Briefly: Antibacterial activity against Levofloxacin-nonsusceptible Escherichia coli assessed as inhibition of bacterial growth by CLSI-based assay. It counts as functional.
The test system of series [23] is Staphylococcus aureus. Briefly: Antibacterial activity against Staphylococcus aureus 456 infected in neutropenic BALB/c mouse model assessed as reduction in lung bacterial load at 1.56 to 400 mg/kg, sc administered every 6 hr and measured after 24 hrs by CLSI-based assay (reference value: 5.6 to 6.3 log10 CFU). The format is functional. As to conditions: dose 1.56-400 mg/kg, pooled result: one value given for 6 cell lines, strains, targets or settings.

Series [24] concerns Staphylococcus aureus. Briefly: Antibacterial activity against levofloxacin-resistant Staphylococcus aureus assessed as inhibition of bacterial growth by CLSI-based assay. It counts as functional.

For `Cl.Cl.O=c1cc(NCCCN[C@@H]2CCOc3c(Br)cc(Br)cc32)[nH]c2ccsc12`, the Activity result in [1] is “Toxic”. In addition, the Survival worked out at 62% in series [2] and 75% in series [3].
With `CCc1c(Cl)c(O)c(Cl)c(O)c1C(=O)O[C@H]1[C@H](O)[C@H](OC)[C@H](OC/C2=C\C=C\C[C@H](O)/C(C)=C/[C@H](CC)[C@@H](O[C@@H]3OC(C)(C)[C@@H](OC(=O)C(C)C)[C@H](O)[C@@H]3O)/C(C)=C/C(C)=C/C[C@@H]([C@@H](C)O)OC2=O)O[C@@H]1C` [FIDAXOMICIN], in [4], the MIC is 0.15 µg/mL (≈ 0.142 µM).
On to `C[C@@H]1CN2c3c(cc4c(N5C(=O)OC[C@@H]5C)noc4c3F)CC3(C(=O)NC(=O)NC3=O)[C@H]2[C@H](C)O1` [ZOLIFLODACIN], for which the MIC in [5] is less than 1 µg/mL; in series [6], 0.5 µg/mL (≈ 1.03 µM). Moreover, in series [7], the MIC90 turned out to be 0.125 µg/mL (≈ 0.256 µM).
In the case of `O=c1[nH]c(NCc2ccc(Cl)c(Cl)c2)nc2ncn(CCN3CCOCC3)c12` [IBEZAPOLSTAT], the MIC in series [4] worked out at 1 µg/mL (≈ 2.36 µM). In [8], the Ki was 325 nM. The Fa in [9] amounted to 5%. Moreover, the MIC50 in series [10] amounted to 2 µg/mL (≈ 4.72 µM).
Regarding `CN1CCC(C(=O)NC(=O)c2c(F)ccc(OCc3nc4cc(C(F)(F)F)cnc4s3)c2F)CC1`, the MIC in [11], in series [12], in series [17], in [18] and in series [19] was 1 µg/mL (≈ 1.94 µM) in each case. Further, in series [13], the “log(activity)” value stood at 2. Also, in series [14], the bioavailability came out at 1%. Moreover, the Vd in series [15] was 2.02 L/kg. Besides, the IC50 in [16] and in series [20] was more than 120 µg/mL throughout.
For `O=c1ccc2ncc(=O)n3c2n1C[C@H]3CN1CCC(NCc2cc3c(cn2)OCCC3)CC1` [GEPOTIDACIN], the MIC90 in series [21], in series [22] and in series [24] was 0.5 µg/mL (≈ 1.11 µM) throughout. Also, the Activity in series [23] came out at 1.4 log10CFU.
